This experiment addresses T1, hTSHR (Homo sapiens, UniProt P16473).
T1 construct: expressed in transfected cells
Kind of experiment: hTSHR TR-FRET cAMP Assay (inhibition of M22-stimulated cAMP production). It is filed as cell-based. Conditions: Expi293F Inducible cells stably expressing hTSHR; cAMP HTRF; stimulated with EC80 of anti-TSHR antibody M22; 15 min compound preincubation, 30 min at 37° C.; read-out: Activity (IC50 bins). Put shortly:
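Readout was a cAMP HTRF ratio of 655/620 nm after lysis, scaled between the EC80 M22 signal (0% inhibition) and no-agonist vehicle (100%). Frozen induced Expi293F-hTSHR cells saw test compounds (0.5% DMSO) for 15 min at 37 °C before 30 min of M22 stimulation at EC80.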
Background: In TR-FRET formats the signal depends on donor and acceptor labels being close together.

Consider 32 compounds from patent publication US20260365628A1, “SUBSTITUTED 3,4-DIHYDROQUINOLINONE INHIBITORS OF TSHR” (Septerna, Inc., priority 2022, published 2026).

T1 sequence (P16473 21-764): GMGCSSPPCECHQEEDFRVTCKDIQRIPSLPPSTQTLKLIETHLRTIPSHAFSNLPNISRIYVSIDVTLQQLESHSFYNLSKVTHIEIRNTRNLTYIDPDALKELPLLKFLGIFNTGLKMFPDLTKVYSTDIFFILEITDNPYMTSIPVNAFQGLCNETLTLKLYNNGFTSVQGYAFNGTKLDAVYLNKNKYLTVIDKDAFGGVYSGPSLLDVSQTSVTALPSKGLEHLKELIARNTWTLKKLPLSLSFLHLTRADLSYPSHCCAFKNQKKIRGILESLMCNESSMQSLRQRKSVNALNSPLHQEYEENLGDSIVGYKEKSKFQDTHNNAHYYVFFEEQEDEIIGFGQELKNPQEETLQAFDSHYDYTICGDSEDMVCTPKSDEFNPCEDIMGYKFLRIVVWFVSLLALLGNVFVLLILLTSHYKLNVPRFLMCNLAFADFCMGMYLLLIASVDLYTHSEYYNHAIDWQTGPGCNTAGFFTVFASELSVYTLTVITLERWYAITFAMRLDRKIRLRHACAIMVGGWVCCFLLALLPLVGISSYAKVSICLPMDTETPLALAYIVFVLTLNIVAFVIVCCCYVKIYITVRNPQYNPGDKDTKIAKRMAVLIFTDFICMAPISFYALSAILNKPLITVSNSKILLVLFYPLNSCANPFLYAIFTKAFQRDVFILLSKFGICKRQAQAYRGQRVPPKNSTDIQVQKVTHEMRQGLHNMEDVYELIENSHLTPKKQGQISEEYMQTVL

Turning to `C[C@H]1Oc2cc(NC(=O)NC(C)(C)C)ccc2N(Cc2nc(C(F)(F)F)cs2)C1=O` [Example 168, (R)-1-(tert-butyl)-3-(2-methyl-3-oxo-4-((4-(trifluoro-methyl)thiazol-2-yl)methyl)-3,4-dihydro-2H-benzo [b][1,4]oxazin-7-yl)urea], the IC50 – broadly, the concentration needed to halve the response being measured – fell in the range of 100 to 1000 nM.
Under `C[C@H]1Oc2cc(NC(=O)NC(C)(C)C)ccc2N(Cc2cncc(C(F)(F)F)n2)C1=O` [Example 169, (R)-1-(tert-butyl)-3-(2-methyl-3-oxo-4-((6-(trifluoro-methyl)pyrazin-2-yl)methyl)-3,4-dihydro-2H-benzo [b][1,4]oxazin-7-yl)urea] stands 100 to 1000 nM; under `C[C@H]1Oc2cc(NC(=O)NC(C)(C)C)ccc2N(Cc2nccc(C(F)(F)F)n2)C1=O` [Example 170, (R)-1-(tert-butyl)-3-(2-methyl-3-oxo-4-((4-(trifluoro-methyl)pyrimidin-2-yl)methyl)-3,4-dihydro-2H-benzo [b][1,4]oxazin-7-yl)urea], 100 to 1000 nM.
In the case of `C[C@H]1Oc2cc(NC(=O)NC(C)(C)C)ccc2N(Cc2cncc(C(F)(F)F)c2)C1=O` [Example 171, (R)-1-(tert-butyl)-3-(2-methyl-3-oxo-4-((5-(trifluoro-methyl)pyridin-3-yl)methyl)-3,4-dihydro-2H-benzo [b][1,4]oxazin-7-yl)urea], the half-maximal inhibitory concentration (IC50) lay in the range of 100 to 1000 nM.
Turning to `C[C@H]1Oc2cc(NC(=O)NC(C)(C)C)ccc2N(Cc2cccc(C(O)C(F)(F)F)c2)C1=O` (stereo partly drawn) [Example 172, 1-(tert-butyl)-3-((2R)-2-methyl-3-oxo-4-(3-(2,2,2-trifluoro-1-hydroxy-ethyl)benzyl)-3,4-dihydro-2H-benzo [b][1,4]oxazin-7-yl)urea], the IC50 was < 100 nM.
The same measure for `C[C@H]1Oc2cc(NC(=O)NC(C)(C)C)ccc2N(Cc2cccc(C(O)C(F)(F)F)n2)C1=O` (stereo partly drawn) [Example 173, 1-(tert-butyl)-3-((2R)-2-methyl-3-oxo-4-((6-(2,2,2-trifluoro-1-hydroxy-ethyl)pyridin-2-yl)methyl)-3,4-dihydro-2H-benzo [b][1,4]oxazin-7-yl)urea]: 100 to 1000 nM.
Under `C[C@H]1Oc2cc(NC(=O)NC(C)(C)C)ccc2N(Cc2cccc([C@@H](O)C(F)(F)F)c2)C1=O` [Example 174, 1-(tert-butyl)-3-((R)-2-methyl-3-oxo-4-(3-((R)-2,2,2-trifluoro-1-hydroxyethyl)benzyl)-3,4-dihydro-2H-benzo [b][1,4]oxazin-7-yl)urea] stands 100 to 1000 nM; under `C[C@H]1Oc2cc(NC(=O)NC(C)(C)C)ccc2N(Cc2cccc([C@H](O)C(F)(F)F)c2)C1=O` [Example 175, 1-(tert-butyl)-3-((R)-2-methyl-3-oxo-4-(3-((S)-2,2,2-trifluoro-1-hydroxyethyl)benzyl)-3,4-dihydro-2H-benzo [b][1,4]oxazin-7-yl)urea], 100 to 1000 nM.
The same measure for `C[C@H]1Oc2cc(NC(=O)NC(C)(C)C)ccc2N(Cc2cc(Cl)ccc2Cl)C1=O` [Example 176, (R)-1-(tert-butyl)-3-(4-(2,5-dichloro-benzyl)-2-methyl-3-oxo-3,4-dihydro-2H-benzo [b][1,4]oxazin-7-yl)urea]: < 100 nM; for `C[C@H]1Oc2cc(NC(=O)NC(C)(C)C)ccc2N(Cc2cc(F)ccc2F)C1=O` [Example 177, (R)-1-(tert-butyl)-3-(4-(2,5-difluoro-benzyl)-2-methyl-3-oxo-3,4-dihydro-2H-benzo [b][1,4]oxazin-7-yl)urea]: < 100 nM.
For `C[C@H]1Oc2cc(NC(=O)NC(C)(C)C)ccc2N(Cc2ccccc2Cl)C1=O` [Example 178, (R)-1-(tert-butyl)-3-(4-(2-chloro-benzyl)-2-methyl-3-oxo-3,4-dihydro-2H-benzo [b][1,4]oxazin-7-yl)urea], the IC50 was in the range of 100 to 1000 nM.
The same measure for `Cc1nc2cc(NC(=O)NC(C)(C)C)ccc2n([C@@H](C)c2ccccc2)c1=O` [Example 179, 3-tert-butyl-1-{3-methyl-2-oxo-1-[(1S)-1-phenylethyl]quinoxalin-6-yl}urea]: 100 to 1000 nM.
Under `Cc1nc2cc(NC(=O)NC(C)(C)C)ccc2n([C@@H](C)c2cccc(Cl)c2)c1=O` [Example 180, (S)-1-(tert-butyl)-3-(1-(1-(3-chlorophenyl)ethyl)-3-methyl-2-oxo-1,2-dihydroquinoxalin-6-yl)urea] stands 100 to 1000 nM; under `Cc1nc2cc(NC(=O)NC(C)(C)C)ccc2n([C@@H](C)c2cccc(C(F)(F)F)c2)c1=O` [Example 181, (S)-1-(tert-butyl)-3-(3-methyl-2-oxo-1-(1-(3-(trifluoromethyl)phenyl)ethyl)-1,2-dihydroquinoxalin-6-yl)urea], 100 to 1000 nM.
As to `Cc1nc2cc(NC(=O)NC(C)(C)C)ccc2n([C@@H](C)c2cccc(OC(F)(F)F)c2)c1=O` [Example 182, (S)-1-(tert-butyl)-3-(3-methyl-2-oxo-1-(1-(3-(trifluoromethoxy)phenyl)ethyl)-1,2-dihydroquinoxalin-6-yl)urea], the IC50 is 100 to 1000 nM.
With `C[C@H]1Oc2cc(NC(=O)NC(C)(C)C)ccc2N([C@@H](C)c2cccc(Cl)c2)C1=O` [Example 183, 1-(tert-butyl)-3-((R)-4-((S)-1-(3-chlorophenyl)ethyl)-2-methyl-3-oxo-3,4-dihydro-2H-benzo[b][1,4]oxazin-7-yl)urea], the IC50 was < 100 nM.
Under `C[C@H]1Oc2cc(NC(=O)NC(C)(C)C)ccc2N([C@@H](C)c2cccc(OC(F)(F)F)c2)C1=O` [Example 184, 1-(tert-butyl)-3-((R)-2-methyl-3-oxo-4-((S)-1-(3-(trifluoromethoxy)phenyl)ethyl)-3,4-dihydro-2H-benzo[b][1,4]oxazin-7-yl)urea] stands 100 to 1000 nM.
In the case of `C[C@H]1Oc2cc(NC(=O)NC(C)(C)C)ccc2N([C@@H](C)c2cccc(C(F)F)c2)C1=O` [Example 185, 1-(tert-butyl)-3-((R)-4-((S)-1-(3-(difluoromethyl)phenyl)ethyl)-2-methyl-3-oxo-3,4-dihydro-2H-benzo[b][1,4]oxazin-7-yl)urea], the IC50 is < 100 nM.
With `C[C@H]1Oc2cc(NC(=O)NC(C)(C)C)ccc2N([C@@H](C)c2cccc(C(F)(F)F)n2)C1=O` [Example 186, 1-(tert-butyl)-3-((R)-2-methyl-3-oxo-4-((S)-1-(6-(trifluoromethyl)pyridin-2-yl)ethyl)-3,4-dihydro-2H-benzo[b][1,4]oxazin-7-yl)urea], the IC50 is < 100 nM.
`COc1cccc([C@H](C)N2C(=O)[C@@H](C)Oc3cc(NC(=O)NC(C)(C)C)ccc32)c1` [Example 187, 1-(tert-butyl)-3-((R)-4-((S)-1-(3-methoxyphenyl)ethyl)-2-methyl-3-oxo-3,4-dihydro-2H-benzo[b][1,4]oxazin-7-yl)urea]: the IC50 lay within 100 to 1000 nM.
Under `C[C@H]1Oc2cc(NC(=O)NC(C)(C)C)ccc2N([C@@H](C)c2cc(F)ccc2F)C1=O` [Example 188, 1-(tert-butyl)-3-((R)-4-((S)-1-(2,5-difluorophenyl)ethyl)-2-methyl-3-oxo-3,4-dihydro-2H-benzo[b][1,4]oxazin-7-yl)urea] stands < 100 nM.
Regarding `C[C@H]1Oc2cc(NC(=O)NC(C)(C)C)ccc2N([C@@H](C)c2ccccc2Cl)C1=O` [Example 189, 1-(tert-butyl)-3-((R)-4-((S)-1-(2-chlorophenyl)ethyl)-2-methyl-3-oxo-3,4-dihydro-2H-benzo[b][1,4]oxazin-7-yl)urea], the IC50 was < 100 nM.
The same measure for `C[C@H]1Oc2cc(NC(=O)NC(C)(C)C)ccc2N([C@@H](C)c2cc(Cl)ccc2Cl)C1=O` [Example 190, 1-(tert-butyl)-3-((R)-4-((S)-1-(2,5-dichlorophenyl)ethyl)-2-methyl-3-oxo-3,4-dihydro-2H-benzo[b][1,4]oxazin-7-yl)urea]: 100 to 1000 nM; for `CC1(NC(=O)Nc2ccc3c(c2)ncc(=O)n3Cc2ccccc2)CCC1` [Example 191, 1-(1-benzyl-2-oxo-1,2-dihydroquinoxalin-6-yl)-3-(1-methylcyclobutyl)urea]: 100 to 1000 nM.
For the compound `CC1(C)CN(C(=O)Nc2ccc3c(c2)ncc(=O)n3Cc2ccccc2)C1` [Example 192, N-(1-benzyl-2-oxo-1,2-dihydroquinoxalin-6-yl)-3,3-dimethylazetidine-1-carboxamide], the concentration for half-maximal inhibition (IC50) was > 1000 nM.
Under `CC1(NC(=O)Nc2ccc3c(c2)ncc(=O)n3Cc2ccccc2)CCCC1` [Example 193, 1-(1-benzyl-2-oxo-1,2-dihydroquinoxalin-6-yl)-3-(1-methylcyclopentyl) urea] stands 100 to 1000 nM; under `CC1(C)CCN(C(=O)Nc2ccc3c(c2)ncc(=O)n3Cc2ccccc2)C1` [Example 194, N-(1-benzyl-2-oxo-1,2-dihydroquinoxalin-6-yl)-3,3-dimethylpyrrolidine-1-carboxamide], > 1000 nM.
Regarding `CC(C)(CF)NC(=O)Nc1ccc2c(c1)ncc(=O)n2Cc1ccccc1` [Example 195, 1-(1-benzyl-2-oxo-1,2-dihydroquinoxalin-6-yl)-3-(1-fluoro-2-methylpropan-2-yl)urea], the concentration for half-maximal inhibition (IC50) is > 1000 nM.
As to `O=C(Nc1ccc2c(c1)ncc(=O)n2Cc1ccccc1)NC1CCCC1` [Example 196, 1-(1-benzyl-2-oxo-1,2-dihydroquinoxalin-6-yl)-3-cyclopentylurea], the concentration for half-maximal inhibition (IC50) is > 1000 nM.
Consider `O=C(Nc1ccc2c(c1)ncc(=O)n2Cc1ccccc1)C1CCCC1` [Example 197, N-(1-benzyl-2-oxo-1,2 dihydroquinoxalin-6-yl)cyclopentanecar-boxamide], for which the half-maximal inhibitory concentration (IC50) is > 1000 nM.
Regarding `CC(C)(NC(=O)Nc1ccc2c(c1)ncc(=O)n2Cc1ccccc1)C(F)(F)F` [Example 198, 1-(1-benzyl-2-oxo-1,2-dihydroquinoxalin-6-yl)-3-(1,1,1-trifluoro-2-methylpropan-2-yl)urea], the IC50 was in the range of 100 to 1000 nM.
Consider `CC(C)(NC(=O)Nc1ccc2c(c1)ncc(=O)n2Cc1ccccc1)C(F)F` [Example 199, 1-(1-benzyl-2-oxo-1,2-dihydroquinoxalin-6-yl)-3-(1,1-difluoro-2-methylpropan-2-yl)urea], for which the IC50 was in the range of 100 to 1000 nM.
